Assay results: patent US11136336B2, “Thienopyrimidones” (Boehringer Ingelheim International GmbH, priority 2019, dated 2021)

Columns and labels:
human TRPA1 ion channel = human TRPA1 ion channel (Homo sapiens (Human), UniProt O75762); assay: Assay A: TRPA1 cell assay (FLIPR, AITC-induced intracellular calcium); format: cell-based; conditions: HEK293 cells over-expressing human TRPA1; agonist AITC 10 μM; FLIPRtetra; read-out: hTRPA1 IC50
Description: A human HEK293 cell line over-expressing the human TRPA1 ion channel (Perkin Elmer, Product No. AX-004-PCL) was used as a test system for compound efficacy and potency. Compound activity was determined by measuring the effect of compounds on intracellular calcium concentration induced by AITC (Allylisothiocyanat) agonism in a FLIPRtetra system (Molecular Devices).
The cells were obtained as frozen cells in cryo-vials and stored until use at −150° C. Cells were grown in culture medium (MEM/EBSS medium with 10% FCS and 0.4 mg/ML Geneticin). […] For sub-culturing cells were detached from flasks by Versene. At the day before the assay, cells were detached, washed twice with medium (MEM/EBSS medium with 10% FCS) and 20000 cells in 20p/well were seeded to Poly D-Lysin biocoated 384-well plates (black, clear bottom, Cat. 356697) from Corning. Plates were incubated for 24 hours at 37° C./5% CO2 before use in the assay.
The test compounds were dissolved in 100% DMSO at a concentration of 10 mM and in a first step diluted in DMSO to a concentration of 5 mM, followed by serial dilution steps in 100% DMSO. Dilution factor and number of dilution steps may vary according to needs. Typically 8 different concentrations by 1:5 dilutions were prepared, further intermediate dilutions (1:20) of the substances were carried out with HBSS/HEPES buffer (1×HEPES, Cat.14065 from Gibco, 20 mM HEPES, Cat. 83264 from SIGMA, 0.1% BSA Cat.11926 from Invitrogen, pH 7,4
At the assay day cells were washed 3× with assay puffer, 20 μL buffer remained in the wells after washing. 10 μL Ca6 kit (Cat.R8191 MolecularDevices) loading buffer in HBSS/HEPES was added to the cells and the plates were incubated with lid for 120 minutes at 37°/5% CO2. 10 μL of compound or controls in HBSS/HEPES buffer/5% DMSO from the intermediate dilution plate were carefully added to the wells. […] Finally 10 μL of the agonist AITC 50 μM dissolved in HBSS/HEPES buffer/0.05% DMSO (final concentration 10 μM) was added to the wells followed by an additional read on the FLIPRtetra device for 10 minutes. The area under the signal curve (AUC) after AITC addition was used for IC50/% inhibition calculations
Each assay microtiter plate contained wells with vehicle (1% DMSO) controls instead of compound as controls for AITC induced luminescence (100% CTL; high controls) and wells with vehicle controls without AITC as controls for non-specific changes in luminescence (0% CTL; low controls).
The analysis of the data was performed by the calculation of the area under signal curve of the individual wells. Based on this values the % value for the measurement of each substance concentration was calculated (AUC(sample)−AUC(low))*100/(AUC(high)−AUC(low)) using MegaLab software (in house development). The IC50 values were calculated from the % control values using MegaLab software. Calculation: [y=(ad)/(1+(x/c)^b)+d], a=low value, d=high value; x=conc M; c=IC50 M; b=hill; y=% ctrl

[1] = Assay B: Microsomal clearance; format: in vitro ADME; conditions: pooled human liver microsomes, 1 mg/ml protein, 1 μM test compound, 37° C.
Description: Assay B: Microsomal Clearance:
The metabolic degradation of the test compound is assayed at 37° C. with pooled liver microsomes. The final incubation volume of 100 μl per time point contains TRIS buffer pH 7.6 at RT (0.1 M), magnesium chloride (5 mM), microsomal protein (1 mg/ml) and the test compound at a final concentration of 1 μM.
Following a short preincubation period at 37° C., the reactions are initiated by addition of beta-nicotinamide adenine dinucleotide phosphate, reduced form (NADPH, 1 mM) and terminated by transferring an aliquot into solvent after different time points (0, 5, 15, 30, 60 min). Additionally, the NADPH-independent degradation is monitored in incubations without NADPH, terminated at the last time point. The [%] remaining test compound after NADPH independent incubation is reflected by the parameter c(control) (metabolic stability). The quenched incubations are pelleted by centrifugation (10000 g, 5 min).
An aliquot of the supernatant is assayed by LC-MS/MS for the amount of parent compound. The half-life (t1/2 INVITRO) is determined by the slope of the semilogarithmic plot of the concentration-time profile.

[2] = Assay C: Hepatocyte clearance; format: in vitro ADME; conditions: human hepatocyte suspension, 1 μM test compound, six hours
Description: Assay C: Hepatocyte Clearance
The metabolic degradation of the test compound is assayed in a hepatocyte suspension. Hepatocytes (cryopreserved) are incubated in. Dulbecco's modified eagle medium (supplemented with 3.5 μg glucagon/500 mL, 2.5 mg insulin/500 mL and 3.75 mg/500 mL hydrocortison) containing 5% or 50% species serum.
Following a 30 min preincubation in an incubator (37° C., 10% CO2) 5 μl of test compound solution (80 μM; from 2 mM in DMSO stock solution diluted 1:25 with medium) are added into 395 μl hepatocyte suspension (cell density in the range 0.25-5 Mio cells/mL depending on the species, typically 1 Mio cells/mL; final concentration of test compound 1 μM, final DMSO concentration 0.05%).
The cells are incubated for six hours (incubator, orbital shaker) and samples (25 μl) are taken at 0, 0.5, 1, 2, 4 and 6 hours. Samples are transferred into acetonitrile and pelleted by centrifugation (5 min). The supernatant is transferred to a new 96-deepwell plate, evaporated under nitrogen and resuspended.
Decline of parent compound is analyzed by HPLC-MS/MS
CLint is calculated as follows CL_[…]=Dose/AUC=(C0/CD)/(AUD+clast/k)×1000/60. C0: initial concentration in the incubation [μM], CD: cell density of vital cells [10e6cells/mL], AUD: area under the data [μM×h], clast: concentration of last data point [μM], k: slope of the regression line for parent decline [h−1].
The calculated in vitro hepatic intrinsic clearance can be scaled up to the intrinsic in vivo hepatic Clearance and used to predict hepatic in vivo blood clearance (CL) by the use of a liver model (well stirred model).

Chain of human TRPA1 ion channel (O75762 whole entry): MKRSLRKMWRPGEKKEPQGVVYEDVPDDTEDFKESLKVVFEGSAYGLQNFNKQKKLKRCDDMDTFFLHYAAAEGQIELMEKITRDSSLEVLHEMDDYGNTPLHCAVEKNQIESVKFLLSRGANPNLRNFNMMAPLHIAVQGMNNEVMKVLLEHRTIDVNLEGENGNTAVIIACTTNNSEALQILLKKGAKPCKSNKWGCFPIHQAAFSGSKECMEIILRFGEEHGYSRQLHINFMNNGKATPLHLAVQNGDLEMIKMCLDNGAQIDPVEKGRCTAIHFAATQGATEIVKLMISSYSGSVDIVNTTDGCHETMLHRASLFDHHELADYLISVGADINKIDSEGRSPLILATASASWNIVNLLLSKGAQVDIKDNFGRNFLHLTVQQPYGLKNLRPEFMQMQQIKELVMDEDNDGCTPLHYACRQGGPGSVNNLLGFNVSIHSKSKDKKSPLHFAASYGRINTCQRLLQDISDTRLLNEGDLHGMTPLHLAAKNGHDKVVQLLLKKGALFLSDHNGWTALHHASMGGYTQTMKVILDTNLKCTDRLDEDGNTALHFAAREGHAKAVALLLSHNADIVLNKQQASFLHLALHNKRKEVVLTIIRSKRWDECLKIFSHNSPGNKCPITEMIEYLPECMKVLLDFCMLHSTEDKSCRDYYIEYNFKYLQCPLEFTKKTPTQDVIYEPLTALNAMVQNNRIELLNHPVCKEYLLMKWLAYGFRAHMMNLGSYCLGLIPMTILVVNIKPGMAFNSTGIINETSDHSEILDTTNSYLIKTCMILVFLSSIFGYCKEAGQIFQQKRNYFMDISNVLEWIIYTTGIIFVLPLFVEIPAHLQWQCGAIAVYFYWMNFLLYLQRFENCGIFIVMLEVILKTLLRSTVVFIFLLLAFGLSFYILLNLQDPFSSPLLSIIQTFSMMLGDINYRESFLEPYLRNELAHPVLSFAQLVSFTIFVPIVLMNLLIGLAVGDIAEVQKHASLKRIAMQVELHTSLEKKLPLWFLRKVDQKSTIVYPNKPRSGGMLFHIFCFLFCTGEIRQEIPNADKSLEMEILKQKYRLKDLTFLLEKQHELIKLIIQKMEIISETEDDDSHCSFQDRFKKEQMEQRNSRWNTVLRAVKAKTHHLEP

Structure (SMILES) | IC50 (human TRPA1 ion channel) [µM] | human LM [% Qh] [1] [% Qh] | human Hepatocytes [% Qh] [2] [% Qh]
Cc1c(C(N)=O)sc2ncn(Cc3nc(C[C@H](O)c4ccc(Cl)cc4)no3)c(=O)c12 [Example 1, 3-({3-[(2S)-2-(4-chlorophenyl)-2-hydroxyethyl]-1,2,4-oxadiazol-5-yl}methyl)-5-methyl-4-oxo-3H,4H-thieno[2,3-d]pyrimidine-6-carboxamide] | 0.013 | 29 | 25
Cc1c(C(N)=O)sc2ncn(Cc3nc(C[C@H](O)c4cc5ccccc5o4)no3)c(=O)c12 [Example 3] | 0.019 | <23 | 36
Cc1c(C(N)=O)sc2ncn(Cc3nc(C[C@H](O)c4ccc(F)c(F)c4)no3)c(=O)c12 [Example 5] | 0.048 | <23 | 37
Cc1c(C(N)=O)sc2ncn(Cc3nc(C[C@H](O)c4ccc5c(c4)OCO5)no3)c(=O)c12 [Example 8] | 0.056 | <23 | 24
CNC(=O)c1sc2ncn(Cc3nc(C[C@H](O)c4ccc5c(c4)OCO5)no3)c(=O)c2c1C [Example 9] | 0.078 | 29 | 24
CNC(=O)c1sc2ncn(Cc3nc(C[C@H](O)c4ccc(Cl)cc4)no3)c(=O)c2c1C [Example 11] | 0.01 | <23 | 29
Cc1c(C(=O)NCC(C)(C)O)sc2ncn(Cc3nc(C[C@H](O)c4ccc(Cl)cc4)no3)c(=O)c12 [Example 13] | 0.037 | <23 | 18
O=C1NCCc2c1sc1ncn(Cc3nc(C[C@H](O)c4ccc(Cl)cc4)no3)c(=O)c21 [Example 15] | 0.009 | <23 | 31

Now from value to compound:

IC50 (human TRPA1 ion channel) [µM] | human LM [% Qh] [1] [% Qh] | human Hepatocytes [% Qh] [2] [% Qh] | Structure (SMILES)
0.02 | <23 | 29 | Cc1ccc([C@@H](O)Cc2noc(Cn3cnc4sc(C(N)=O)c(C)c4c3=O)n2)cc1 [Example 2]
0.033 | <23 | 29 | Cc1c(C(N)=O)sc2ncn(Cc3nc(C[C@H](O)c4ccc(F)cc4)no3)c(=O)c12 [Example 4]
0.048 | <23 | 23 | Cc1c(C(N)=O)sc2ncn(Cc3nc(C[C@H](O)c4cc(F)cc(F)c4)no3)c(=O)c12 [Example 6]
0.034 | 23 | 39 | Cc1c(C(N)=O)sc2ncn(Cc3nc(C[C@H](O)c4ccc5c(c4)OC(F)(F)O5)no3)c(=O)c12 [Example 7]
 | <23 | 25 | CNC(=O)c1sc2ncn(Cc3nc(C[C@H](O)c4ccc(F)cc4)no3)c(=O)c2c1C [Example 10]
0.015 | 24 | 36 | Cc1c(C(=O)NCC(F)F)sc2ncn(Cc3nc(C[C@H](O)c4ccc(Cl)cc4)no3)c(=O)c12 [Example 12]
0.033 | <23 | 24 | CNC(=O)c1sc2ncn(Cc3nc(C[C@H](O)c4ccc(F)c(F)c4)no3)c(=O)c2c1C [Example 14]
0.016 | <23 | 39 | NC(=O)c1sc2ncn(Cc3nc(C[C@H](O)c4ccc(Cl)cc4)no3)c(=O)c2c1Cl [Example 16]
